Reference: patent US12042507B2, “Compositions and methods of modulating HIF-2A to improve muscle generation and repair” (University of Georgia Research Foundation, Inc., priority 2017, dated 2024)
Entries after “also recorded” stand apart in the source; their conditions may differ.

Tests used:
[1] = tested on: clear cell renal cell carcinoma (ccRCC); details: patients with ccRCC; cited from earlier work
[2] = tested on: HIF-2α target genes in tumor cells; details: cited from earlier work
mouse xenograft models = details: cited from earlier work
HIF-2α = details: cited from earlier work
HIF-1a = details: cited from earlier work
CTX-injured TA muscles = experiment: Muscle regeneration after CTX-induced injury, intramuscular HIF-c2; details: for total number of Pax7+ SCs per TA muscle section: vs DMSO
Description: To induce Cre activity in mice with the Pax7^cre/ERT2 allele, tamoxifen (20 mg/ml in corn oil) was intraperitoneally administrated for 3 consecutive days (100 mg/Kg/day). To assess myofiber damage, 1% Evan's blue (4 ml/Kg in saline) was intraperitoneally administrated 1 day before the euthanasia. To trace proliferative cells, EdU (50 mg/Kg in DMSO) was intraperitoneally administrated 1 day before the euthanasia. For CTX-induced muscle injury, CTX (0.5 nmol in saline) was injected into TA muscle.
For staining muscle sections, muscle sections were fixed with 2% paraformaldehyde (PFA)/PBS for 10 mins, quenched with 50 mM glycine for 10 mins, permeabilized with 0.5% Triton X-100 for 10 mins. To reduce background fluorescence due to endogenous mouse IgG, Mouse on Mouse (M.O.M.) Blocking Reagent (Vector Lab) was used according to the manufactures' instruction. Muscle sections were blocked in 5% BSA/5% normal goat serum in PBS for 1 hr and incubated with primary antibodies: anti-Pax7 (1:5; DSHB), anti-HIF-2α (1:250; Novus Bio.), anti-HIF-1α (1:250; Novus Bio.), anti-Ki67 (1:1,000; Abcam), anti-Laminin B2 (1:1,000; Milipore), anti-embryonic MyHC (1:50, DSHB), anti-MyHC type I, IIA, or IIB (1:50, DSHB) overnight at 4° C. For EdU staining, Click-iT EdU Fluorescence Kit (Life technologies) was used according to the manufactures' instruction before the application of primary antibodies. Muscle sections were washed in PBS with 0.1% Tween-20, incubated with Alexa Fluor dye-labeled secondary antibodies at room temperature for 1 hr and washed. Sections were mounted with DAPI-containing mounting medium (Life technologies).
Peak isometric torque of the ankle dorsiflexors (tibialis anterior, extensor digitorum longus and extensor hallicus longus muscles) was assessed in vivo as previously described (47). Briefly, mice were anaesthetized with 1.75% isoflurane mixed with oxygen. The left hindlimb was depilated and aseptically prepared before the foot was placed into a foot plate attached to a servomoter (Model 300C-LR; Aurora Scientific, Aurora, Ontario, Canada). Two Pt-Ir electrode needles (Model E2-12; Grass Technologies, West Warwick, RI, USA) were inserted percutaneously on either side of the peroneal nerve. The ankle joint was secured at a 90° angle and body temperature was maintained at 37° C. throughout functional testing. Peak isometric torque was achieved by varying the current delivered to the peroneal nerve at a frequency of 200 Hz and a 0.1-ms square wave pulse. Torques (Nomm) were normalized by the body mass (kg^−1) to account for differences in body size among mice. Following peak isometric torque measurements, the dorsiflexors were subject to 100 electronically stimulated eccentric contractions in order to induce injury. During each contraction the foot was passively moved from the 0° position (perpendicular to tibia) to 20° of dorsiflexion. The dorsiflexors were stimulated at 200 Hz for a 100-ms isometric contraction followed by an additional 50 ms of stimulation while moving from 20° dorsiflexion to 20° plantarflexion at an angular velocity of 800°/s. Eccentric contractions were repeated every 10 seconds and the entire protocol lasted about […].
Muscle sections were stained with Sirius red solution (0.1% in picric acid) for 15 mins, washed with 1% acetic acid for 3 times. Sections were mounted with Cytoseal™ 60 mounting medium (Thermo Fisher Scientific), followed with imaging.
To investigate effects of HIF-2α inhibition on muscle regeneration, HIF-c2 or the carrier solution (1% DMSO) was administered into CTX-injured TA muscles of C57BL/6 mice (daily injections between 1-5 dpi; FIG. 5A). EdU was administrated in the same mice to trace cell proliferation.

C2Cl2 myoblasts = experiment: RT-qPCR of HIF-2α and Spry1 mRNA in C2Cl2 myoblasts; assay type: cell-based
Description: C2Cl2 myoblasts were transfected with pCMEGIP-HIF2αTM or control empty pCMEGIP plasmids using TransIT-X2 (Mirus Bio.). To differentiate C2Cl2 myoblasts, cells were cultured to reach 80% confluency and further cultured in DMEM (4.5 g/L glucose) medium supplemented with 2% horse serum for 5 days.
For measure relative expression levels, total RNA was isolated from C2Cl2 myoblasts using TRIzol or from FACS sorted satellite cells using PicoPure RNA Isolation Kit (Thermo Fisher Scientific). 1 μg total RNA from C2Cl2 myoblasts (or 0.2 μg total RNA from satellite cells) was used in 20 μl reverse transcription reactions (Maxima; Life technologies) and diluted into 100 μl. 2 μl diluted cDNA was used in 8 μl quantitative PCR reactions (SsoAdvanced™ Universal SYBR Green mix; Bio-Rad) on a BioRad CFX384™ Real-Time PCR Detection System. Cq-values were determined and expression values were calculated by BioRad CFX Manager™ Software. Relative expression values were normalized to inner reference genes Rps18 and Tbp of each biological sample. The following primers were used for quantifying expression levels: […]

[3] = tested on: CTX-injured tibialis anterior (TA) muscles of hypoxia-exposed mice; experiment: Muscle regeneration after CTX injury under eubaric hypoxia; assay type: in vivo, wildtype B6 mice; details: hypoxia 17% pO2, 10 dpi
Description: To gain insights on hypoxic effect on muscle regeneration, wildtype B6 mice (12-week old) were treated with eubaric hypoxia (17% pO2, 1 atm) in hypoxia chamber for 4 weeks and injected with CTX (0.5 nmol, 100 μL) into tibialis anterior (TA) muscles at day 18. Mice under normoxia (21% pO2, 1 atm) were injured with CTX as a control.
To assess if HIF-2α inhibition benefits regeneration under experimental hypoxia, HIF-2α inhibitor HIF-C2 (5 mg in 0.1% DMSO) or vehicle (0.1% DMSO) were intramuscularly administered to the injured muscles at days 2, 3 and 4 post-injury (2-4 dpi).

[4] = tested on: tibialis anterior (TA) muscles of mTR/Mdx mice; experiment: Intramuscular HIF-C2 in dystrophic TA muscle of mTR/Mdx mice; assay type: in vivo
Description: To reveal the potential therapeutic effects of HIF-2α inhibition on muscular dystrophy, the HIF-2α inhibitor HIF-C2 was intramuscularly injected (5 mg/injection; total 3 doses on day 1, day 4, and day 7) into tibialis anterior (TA) muscles of mTR/Mdx mice (2nd generation; males: n=3 and females: n=3; 16-week old). The contralateral TA muscles received vehicle (0.1% DMSO) injections followed the same injection regime. HIF-C2 and vehicle-treated TA muscles were collected for histological examinations at 28 days after the first treatment.
To investigate whether HIF-C2 improves satellite cell function in mTR/Mdx mice, Pax7 (the definitive marker of satellite cells) and Ki67 (a proliferation marker) immunostaining were carried out on muscle cross-sections and the number of Pax7+pos cells (total number of satellite cells) and Pax7+pos/Ki67+pos cells (proliferative satellite cells) per muscle section were enumerated.
Muscle fibrosis is one of the characteristic pathological changes of Duchenne muscular dystrophy (Klingler et al., Acta Myol 31, 184-195 (2012)). […] Thus, Masson's trichrome staining was performed to reveal the amount of collagen in endomysium.

HIF-2α PAS-B = HIF-2α PAS-B (Homo sapiens, UniProt Q99814); details: binds within the internal cavity of HIF-2α PAS-B; cited from earlier work
[5] = target: full-length HIF-2 transcription factor (Homo sapiens, UniProt Q99814); details: cited from earlier work
HIF-2 = details: living cells; cited from earlier work
HIF-1 = HIF-1 (Homo sapiens, UniProt Q16665); details: selectivity for the HIF-2 isoform; cited from earlier work
[6] = shRNA expression in C2Cl2 myoblasts

Sequence of HIF-2α PAS-B (Q99814 240-350 limits assumed): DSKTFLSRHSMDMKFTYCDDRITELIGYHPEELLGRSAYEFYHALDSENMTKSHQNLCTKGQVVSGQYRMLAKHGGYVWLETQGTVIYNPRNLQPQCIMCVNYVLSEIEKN
Sequence of HIF-1 (Q16665 whole entry, canonical isoform): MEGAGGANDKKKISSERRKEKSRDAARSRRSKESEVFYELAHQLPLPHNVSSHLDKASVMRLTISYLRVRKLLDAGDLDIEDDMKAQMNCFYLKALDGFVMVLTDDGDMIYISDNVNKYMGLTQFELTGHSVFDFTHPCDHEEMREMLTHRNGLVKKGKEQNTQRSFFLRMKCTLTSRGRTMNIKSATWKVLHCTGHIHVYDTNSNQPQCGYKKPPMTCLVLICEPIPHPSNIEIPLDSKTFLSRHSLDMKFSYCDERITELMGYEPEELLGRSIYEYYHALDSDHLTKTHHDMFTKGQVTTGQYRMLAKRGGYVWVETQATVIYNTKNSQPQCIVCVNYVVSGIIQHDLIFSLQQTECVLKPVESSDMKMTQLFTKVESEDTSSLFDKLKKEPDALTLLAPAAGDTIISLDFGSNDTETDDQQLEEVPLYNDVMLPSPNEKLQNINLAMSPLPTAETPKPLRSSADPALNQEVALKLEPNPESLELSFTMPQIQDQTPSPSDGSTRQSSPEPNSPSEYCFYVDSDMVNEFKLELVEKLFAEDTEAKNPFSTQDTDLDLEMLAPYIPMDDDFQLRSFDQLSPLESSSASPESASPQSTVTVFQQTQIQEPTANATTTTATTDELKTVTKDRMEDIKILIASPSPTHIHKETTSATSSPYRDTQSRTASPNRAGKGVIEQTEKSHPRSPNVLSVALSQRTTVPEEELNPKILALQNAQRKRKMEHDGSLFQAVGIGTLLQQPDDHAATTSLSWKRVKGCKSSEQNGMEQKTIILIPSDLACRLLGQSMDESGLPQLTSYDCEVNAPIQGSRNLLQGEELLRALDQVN
Sequence of full-length HIF-2 transcription factor (Q99814 whole entry): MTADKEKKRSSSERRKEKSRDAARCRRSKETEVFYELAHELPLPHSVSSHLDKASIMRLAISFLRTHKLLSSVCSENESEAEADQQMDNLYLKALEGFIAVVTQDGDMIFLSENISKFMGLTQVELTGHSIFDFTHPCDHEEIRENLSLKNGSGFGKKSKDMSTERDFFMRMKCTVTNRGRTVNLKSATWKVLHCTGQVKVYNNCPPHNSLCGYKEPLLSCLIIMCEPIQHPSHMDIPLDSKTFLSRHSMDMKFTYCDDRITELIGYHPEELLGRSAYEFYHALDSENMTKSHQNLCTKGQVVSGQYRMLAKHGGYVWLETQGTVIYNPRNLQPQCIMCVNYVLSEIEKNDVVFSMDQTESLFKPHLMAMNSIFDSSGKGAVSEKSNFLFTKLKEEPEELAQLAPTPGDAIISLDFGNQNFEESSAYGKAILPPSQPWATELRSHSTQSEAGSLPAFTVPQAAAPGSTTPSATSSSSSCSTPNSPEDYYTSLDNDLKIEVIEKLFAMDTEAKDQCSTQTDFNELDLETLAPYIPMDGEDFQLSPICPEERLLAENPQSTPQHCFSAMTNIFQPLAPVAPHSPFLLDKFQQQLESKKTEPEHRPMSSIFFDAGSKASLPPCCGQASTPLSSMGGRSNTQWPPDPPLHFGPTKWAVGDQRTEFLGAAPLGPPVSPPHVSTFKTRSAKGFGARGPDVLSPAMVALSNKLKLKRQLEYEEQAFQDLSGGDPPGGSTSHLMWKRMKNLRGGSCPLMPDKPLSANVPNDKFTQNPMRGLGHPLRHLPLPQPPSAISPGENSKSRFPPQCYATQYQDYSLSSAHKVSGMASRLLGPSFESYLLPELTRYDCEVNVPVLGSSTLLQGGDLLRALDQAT

**Q.** For `CS(=O)(=O)c1ccc(Oc2cc(F)cc(C#N)c2)c2c1[C@H](O)C(F)(F)C2` [PT2385], which clinical activity [1] is on record?
**A.** demonstrated clinical activity

**Q.** With `CS(=O)(=O)c1ccc(Oc2cc(F)cc(C#N)c2)c2c1[C@H](O)[C@H](F)[C@@H]2F` [PT2977] as the molecule, how does the “expression of HIF-2α target genes” value [2] read?
**A.** inhibited

**Q.** And the tumor regression (mouse xenograft models)?
**A.** induced regression

**Q.** Which “reversal of epigenetic silencing of HIF-2α” value (HIF-2α) does the source give for `O=C(CCCCCCC(=O)Nc1ccccc1)NO` [Vorinostat] here?
**A.** can reverse the epigenetic silencing of HIF-2α

**Q.** What about the “reversal of epigenetic silencing of HIF-1a” value (HIF-1a) of the same molecule?
**A.** not HIF-1a

**Q.** With `O=[N+]([O-])c1c(Nc2cc(F)cc(Cl)c2)ccc2nonc12` [HIF-C2, N-(3-chloro-5-fluorophenyl)-4-nitrobenzo[c][1,2,5]oxadiazol-5-amine] as the molecule, how does the “Pax7+/EdU+ activated SCs per TA muscle section” value (CTX-injured TA muscles; 3 dpi, vs 1% DMSO carrier) read?
**A.** increased

**Q.** What about the “expression of HIF-2α in treated muscle” value (CTX-injured TA muscles; 7 dpi) of the same molecule?
**A.** reduced

**Q.** What about the “expression of MyoD in treated muscle” value (CTX-injured TA muscles; 7 dpi) of the same molecule?
**A.** reduced

**Q.** And the “expression of eMyHC in treated muscle” value (CTX-injured TA muscles; 7 dpi)?
**A.** reduced

**Q.** And the myofiber regeneration (CTX-injured TA muscles; 7 dpi)?
**A.** improved

**Q.** And the “recovery of the maximal torque measured before injury” value (CTX-injured TA muscles; 7 dpi, n=6, peroneal nerve stimulation)?
**A.** ~53%

**Q.** And the “total number of Pax7+ SCs per TA muscle section” value (CTX-injured TA muscles; 7 dpi)?
**A.** increased

**Q.** What about the “total number of Pax7+ SCs per TA muscle section” value (CTX-injured TA muscles; 10 dpi) of the same molecule?
**A.** increased

**Q.** And the “fibrosis (Sirius red staining for collagen)” value (CTX-injured TA muscles; 30 dpi)?
**A.** no overt sign of fibrosis

**Q.** And the “myofiber cross sectional areas” value (CTX-injured TA muscles; 30 dpi)?
**A.** increased

**Q.** What about the “numbers of Pax7+ SCs vs control muscles” value (CTX-injured TA muscles; 30 dpi) of the same molecule?
**A.** comparable numbers

**Q.** What about the “recovery of the strength (maximal torque)” value (CTX-injured TA muscles; 30 dpi, n=3) of the same molecule?
**A.** ~90%

**Q.** What about the “HIF-2α expression in muscle (including SCs)” value (CTX-injured TA muscles; intramuscular, 5 mg/injection/day, 3 consecutive days) of the same molecule?
**A.** reduced HIF-2α expression

**Q.** What about the “HIF-2α mRNA level” value (C2Cl2 myoblasts; HIF-c2 100 μM, C2Cl2 myoblasts) of the same molecule?
**A.** unchanged

**Q.** And the “Spry1 mRNA level” value (C2Cl2 myoblasts; HIF-c2 100 μM, C2Cl2 myoblasts)?
**A.** decreased; also recorded: reduced

**Q.** And the “muscle regeneration under hypoxia” value [3]?
**A.** improved

**Q.** And the “percentage of Ki67+ proliferating satellite cells” value [3]?
**A.** improved satellite cell proliferation under hypoxia to a level better than the normoxic condition

**Q.** What about the “MuSC (Pax7+) number” value ([3]; 5 mg i.m. at 2-4 dpi, vs vehicle) of the same molecule?
**A.** increased

**Q.** What about the “total number of satellite cells (Pax7+pos) per muscle section” value ([4]; female mTR/Mdx mice) of the same molecule?
**A.** elevated

**Q.** And the “number of proliferative satellite cells (Pax7+pos/Ki67+pos)” value ([4]; female mTR/Mdx mice, 28 days post-treatment, vs control)?
**A.** comparable

**Q.** And the “number of centralized nuclei in a myofiber” value ([4]; male mTR/Mdx mice)?
**A.** increased

**Q.** What about the “number of proliferative satellite cells (Pax7+pos/Ki67+pos)” value ([4]; male mTR/Mdx mice) of the same molecule?
**A.** significantly increased

**Q.** And the “total number of satellite cells (Pax7+pos) per muscle section” value ([4]; male mTR/Mdx mice)?
**A.** significantly increased

**Q.** What about the “myofiber cross-sectional area (CSA), ImageJ analysis” value ([4]; males and females, 28 days after first treatment) of the same molecule?
**A.** increase of myofiber caliber

**Q.** And the “myofiber size (H&E staining)” value ([4]; males and females, 28 days after first treatment, 5 mg/injection x3, vs vehicle)?
**A.** larger myofibers

**Q.** And the “amount of collagen in endomysial space (Masson's trichrome staining)” value ([4]; vs vehicle-treated control muscles)?
**A.** remarkably reduced

**Q.** What about the Kd (HIF-2α PAS-B) of the same molecule?
**A.** 0.081 µM

**Q.** What about the “heterodimerization of the full-length HIF-2 transcription factor” value [5] of the same molecule?
**A.** disrupts heterodimerization

**Q.** And the “HIF-2 DNA binding and transcription of its target genes” value (HIF-2)?
**A.** disrupting HIF-2 DNA binding and inhibiting the transcription of its target genes

**Q.** And the “activity to antagonize HIF-1” value (HIF-1)?
**A.** no activity to antagonize HIF-1

B1: HIF-2α shRNA #1: For HIF-2α knockdown, HIF-2α shRNA oligos ... cloned into pMSCV-P2GM retrovirus plasmids; HIF-2α shRNA #1 oligo (SEQ ID NO: 18) (nucleic acid)
DNA: TGCTGTTGACAGTGAGCGAACACTTGATGTGGAAACGTATTAGTGAAGCCACAGATGTAATACGTTTCCACATCAAGTGTGTGCCTACTGCCTCGGA
**Q.** Which “HIF-2α mRNA level” value (C2Cl2 myoblasts; [6]) does the source give for B1 here?
**A.** reduced

**Q.** What about the “Spry1 mRNA level” value (C2Cl2 myoblasts; [6]) of the same molecule?
**A.** reduced
